Source: patent US20090258030A1, “Materials and Methods for Improving Livestock Productivity” (priority 2006, published 2009)
Structures can show the parent of a compound that is named as a salt. Marks after values point to notes of the source that are not given here.

Experiments:
[1] = Efficacy of cysteamine hydrochloride on sow and their weaning piglets performance (Example 9); type: in vivo, swine (crossbred Yolkshire and Lanrace sows); details: for Total of pigs born: 10 sows from 84 days gestation; for Av. of milk yield, L/d: calculated from average daily gain of piglets × 4 × no of piglets in each litter; for Total number of piglets at weaning: weaned at 21 days
Text: All sows used in the experiment were crossbred (Yolkshire and Lanrace) selected from the 3rd and the 4^Th (ratio 4:6) pregnancy. Thirty sows (84 days gestation) were equally allocated into three treatments and each treatment of sows were divided into 10 replications with each sow per replication.
Cysteamine Hydrochloride was included to sow feeds at 135 ppm or 190 ppm. The diets were fed in mash form, water was allowed ad libitum. Litter size, litter weights, number of piglets born alive and weaned were recorded. Morbidity, incidence of diarrhea and mortality rates were recorded. Piglet's uniformity was accounted as percentage units that fell into two times of standard deviation based on average weaning live weight. The piglets from each sow were weaned at 21 days of age. On day 109 of gestation, sows were moved to farrowing units and were weight after farrowing and also weighed again after lactation. Back fat losses were measured every weeks during lactation period by using Renco Lean-Meter (Ultrasound for Ultra-profits, Renco Corporation, Minnesota, 55401, USA). Sows were fed about 2 kg/day during 16-84 days, 3 kg/day until farrowing and fed ad libitum during lactation period.
All sows were housed in cages adjacent to the boar's area and serviced by artificial insemination twice at 18 hours interval with the checked quality semen of the same boar. After 1 week service, they were weighed and moved to individual gestation cages. Five days prior to the date of parturition, they were moved to the farrowing units for setting in and staying till piglets weaning. After piglets weaning each sow was moved again to the service area.
All sows and piglets were subject to the usual vaccination program, antiparasitic treatment, iron injection and tail docking for piglets. An individual treatment was done if a disease or injury was developed during the trial, under the authority of the veterinary in charge of the farm animal health.

[2] = Effect of cysteamine compound on crossbreed sheep (Example 6); type: in vivo
[3] = Cysteamine used to fatten pigs (Example 8); type: in vivo; details: 190 ppm
[4] = Intestine villi length and histology in pigs (Example 4); type: in vivo, swine; details: 150 g of cysteamine hydrochloride per ton of feed; 30 days
Procedure: 72 piglets were evenly divided into control group and Cysteamine group. The control group was treated with basal diet only, while the Cysteamine group was added with 150 g of cysteamine hydrochloride per ton of feed. The trial was lasted for 30 days.
Immediately after evisceration, tissue samples from the small intestine, large intestine, liver, and pancreas of pigs from each treatment group were collected. The collected samples were placed in properly labeled containers containing 10% buffered neutral formalin solution. The tissue samples were fixed for 78 hours before they were processed for routine histological examination using the paraffin embedding technique (well-known to the skilled artisan).
Sections approximately 5 to 6μ thick were cut from paraffin blocked tissues using Optical 820 Rotary Microtome (Scientific Instruments Division, Buffalo, N.Y.). Some sections were stained with hematoxylin and eosin (H & E), others with Alcian blue. H & E stained sections were used for the examination of the general histology of the intestinal tract while the Alcian blue stained sections were used for goblet cells identification. The stained sections were examined under various magnifications using a light microscope.
The number and length (μm) of villi in the small intestine were counted per microscopic field; the thickness of the tunica muscularis in the small and large intestine were measured using American Optical Micrometer (American Optical Company, Buffalo, N.Y.) calibrated in millimeters. The mucosal folds in the large intestine, the density of intestinal glands (crypts), the appearance of the surface epithelium were all observed. The general histology of the liver and pancreas were examined and compared between Cysteamine treated and non-Cysteamine treated groups. Goblet cell density in the Cysteamine treated and non-Cysteamine treated pigs was compared through visual examination using light microscope.

[5] = T2: 0.0135 (135 ppm in sow feed)
[6] = T3: 0.019 (190 ppm in sow feed)
[7] = 900 g cysteamine HCl per tonnage of diet, after 35 days
[8] = 900 g/tonnage, 35 days, vs control
[9] = feed consumed, 900 g/tonnage, 35 days, 20 head

NCCS [Cysteamine Hydrochloride, cysteamine hydrochloride]
Av. birth weight of piglets, kg [1, 5]: 1.737^a kg | Av. daily feed intake of sow during lactation, kg [1, 5]: 5.88^a kg | Av. daily gain of piglets [1, 5]: 355 g | Av. feed intake per piglets [1, 5]: 179 g | Av. live weight of piglets at weaning [1, 5]: 7.45 kg | Av. number of piglets born alive per litter [1, 5]: 11.10 | Av. of piglet born per litter [1, 5]: 11.60 | Av. overall weight loss of sow during lactation, kg [1, 5]: 14.25^b kg | Av. total birth weight of piglet per litter, kg [1, 5]: 19.10^a kg | Back fat loss of sow during lactation, mm: Overall [1, 5]: 0.867^b mm | Back fat loss of sow during lactation, mm: Week 1 [1, 5]: 0.165^b mm | Back fat loss of sow during lactation, mm: Week 2 [1, 5]: 0.588^b mm | Back fat loss of sow during lactation, mm: Week 3 [1, 5]: 0.114^b mm | Number of piglet weaning per litter [1, 5]: 10.20 | Survival rate of piglets at weaning, % [1, 5]: 91.90% | Total number of piglet born alive per litter [1, 5]: 111 | Total weight of piglets at weaning per litter, kg [1, 5]: 76.02^ab kg | Uniformity of live weight at weaning, % [1, 5]: 86.68^a % | Total of pigs born [1, 5]: 116 | Av. of milk yield, L/d [1, 5]: 14.48^ab L/d | Total number of piglets at weaning [1, 5]: 102 | Av. birth weight of piglets, kg [1, 6]: 1.782^a kg | Av. daily feed intake of sow during lactation, kg [1, 6]: 6.07^a kg | Av. daily gain of piglets [1, 6]: 366 g | Av. feed intake per piglets [1, 6]: 183 g | Av. live weight of piglets at weaning [1, 6]: 7.68 kg | Av. number of piglets born alive per litter [1, 6]: 10.70 | Av. of piglet born per litter [1, 6]: 11.50 | Av. overall weight loss of sow during lactation, kg [1, 6]: 13.58^b kg | Av. total birth weight of piglet per litter, kg [1, 6]: 18.88^a kg | Back fat loss of sow during lactation, mm: Overall [1, 6]: 0.829^b mm | Back fat loss of sow during lactation, mm: Week 1 [1, 6]: 0.171^b mm | Back fat loss of sow during lactation, mm: Week 2 [1, 6]: 0.548^b mm | Back fat loss of sow during lactation, mm: Week 3 [1, 6]: 0.110^b mm | Number of piglet weaning per litter [1, 6]: 10.40 | Survival rate of piglets at weaning, % [1, 6]: 97.20% | Total number of piglet born alive per litter [1, 6]: 107 | Total weight of piglets at weaning per litter, kg [1, 6]: 79.42^a kg | Uniformity of live weight at weaning, % [1, 6]: 86.95^a % | Total of pigs born [1, 6]: 115 | Av. of milk yield, L/d [1, 6]: 15.13^a L/d | Total number of piglets at weaning [1, 6]: 104 | amount of silage necessary in raising the sheep [2, 7]: reduction | weight (ADG) vs control [2, 7]: statistically significant increase | ADG (g/head/day) ([2]; 900 g/tonnage, 35 days): 82.29 g/head/day | Final weight (kg/head) ([2]; 900 g/tonnage, 35 days): 29.59 kg/head | Weight gain (kg/head) ([2]; 900 g/tonnage, 35 days): 2.88 kg/head | Total feed consumption ([2]; 900 g/tonnage, 35 days, 20 head): 1001.2 kg | ADG: Improvement (%) [2, 8]: 46.2% | Silage: Improvement (%) [2, 8]: −5.14% | Weight gain: Improvement (%) [2, 8]: 46.2% | Concentrate [2, 9]: 245 kg | Hay [2, 9]: 350.0 kg | Silage [2, 9]: 406.2 kg | ADG ([3]; from 68 kg to market (35 days)): 1182 g | Age ([3]; from 68 kg to market (35 days)): 187 days | Ave. backfat thickness (cm) ([3]; from 68 kg to market (35 days)): 2.1 cm | Back fat thickness (neck) (cm) ([3]; from 68 kg to market (35 days)): 3.0 cm | Back fat thickness, Hip (cm) ([3]; from 68 kg to market (35 days)): 1.4 cm | Back fat thickness, Middle part (cm) ([3]; from 68 kg to market (35 days)): 1.8 cm | Body weight after slaughtering ([3]; from 68 kg to market (35 days)): 86 kg | Body weight before slaughtering ([3]; from 68 kg to market (35 days)): 106 kg | FCR ([3]; from 68 kg to market (35 days)): 2.71 | Feed consumption ([3]; from 68 kg to market (35 days)): 103 kg | Loin eye diameter (cm) ([3]; from 68 kg to market (35 days)): 33.0 cm | ADG: Improvement ([3]; vs control): 125 g | ADG: Improvement (%) ([3]; vs control): 11.79% | Age: Improvement ([3]; vs control): -5 days | Age: Improvement (%) ([3]; vs control): −2.60% | Ave. backfat thickness: Improvement ([3]; vs control): −0.5 cm | Ave. backfat thickness: Improvement (%) ([3]; vs control): −18.42% | Back fat thickness (neck): Improvement ([3]; vs control): −0.6 cm | Back fat thickness (neck): Improvement (%) ([3]; vs control): −16.67% | Back fat thickness, Hip: Improvement ([3]; vs control): −0.2 cm | Back fat thickness, Hip: Improvement (%) ([3]; vs control): −12.50% | Back fat thickness, Middle part: Improvement ([3]; vs control): −0.6 cm | Back fat thickness, Middle part: Improvement (%) ([3]; vs control): −25.00% | Body weight after slaughtering: Improvement ([3]; vs control): 2 kg | Body weight after slaughtering: Improvement (%) ([3]; vs control): 2.38% | Body weight before slaughtering: Improvement ([3]; vs control): 2 kg | Body weight before slaughtering: Improvement (%) ([3]; vs control): 1.92% | FCR: Improvement ([3]; vs control): −0.26 | FCR: Improvement (%) ([3]; vs control): −8.80% | Feed consumption: Improvement ([3]; vs control): -4 kg | Feed consumption: Improvement (%) ([3]; vs control): −3.74% | Loin eye diameter: Improvement ([3]; vs control): 2.5 cm | Loin eye diameter: Improvement (%) ([3]; vs control): 8.20% | Villi Length, Small Intestines [4]: 2.15 ± 0.09^A | goblet cells in the small and large intestine vs non-Cysteamine-treated [4]: noticeably larger and highly distended | number and length of small intestinal villi vs non-Cysteamine treated [4]: more numerous and longer
